{
  "source": "paper PMC6934184",
  "about": "“Selective DNA-PKcs inhibition extends the therapeutic index of localized radiotherapy and chemotherapy” (The Journal of Clinical Investigation, 2019)",
  "target": "T1, PRKCQ (PKC theta) (Homo sapiens, UniProt Q04759)",
  "T1 construct": "purchased Thermo Fisher Scientific (Life Technologies) SelectScreen",
  "T1 sequence (Q04759 whole entry)": "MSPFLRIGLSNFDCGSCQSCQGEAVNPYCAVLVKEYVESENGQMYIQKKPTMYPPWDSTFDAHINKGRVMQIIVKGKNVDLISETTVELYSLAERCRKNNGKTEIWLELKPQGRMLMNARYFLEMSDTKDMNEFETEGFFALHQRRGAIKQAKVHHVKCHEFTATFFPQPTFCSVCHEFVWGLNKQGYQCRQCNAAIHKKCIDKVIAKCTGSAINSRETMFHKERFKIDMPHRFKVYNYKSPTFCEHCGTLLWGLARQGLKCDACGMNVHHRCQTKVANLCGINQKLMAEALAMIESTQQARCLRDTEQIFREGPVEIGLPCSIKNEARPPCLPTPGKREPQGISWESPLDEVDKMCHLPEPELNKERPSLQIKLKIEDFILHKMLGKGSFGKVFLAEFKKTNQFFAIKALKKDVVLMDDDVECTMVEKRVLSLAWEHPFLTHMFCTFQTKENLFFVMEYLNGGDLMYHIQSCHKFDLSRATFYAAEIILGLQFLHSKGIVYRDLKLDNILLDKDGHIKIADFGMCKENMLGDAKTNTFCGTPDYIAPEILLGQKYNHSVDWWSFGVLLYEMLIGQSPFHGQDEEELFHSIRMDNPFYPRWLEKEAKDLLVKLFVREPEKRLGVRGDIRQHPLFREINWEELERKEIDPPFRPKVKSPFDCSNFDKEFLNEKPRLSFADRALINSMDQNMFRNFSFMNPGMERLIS",
  "assay": "SelectScreen Z'LYTE",
  "assay_type": "biochemical",
  "procedure,_shortened": "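Percent values come from Thermo SelectScreen profiling of NU5455, combining activity and binding assays. CSF1R was run in Z'LYTE format at Km app ATP, and CAMK1 in Adapta format with ATP listed at 10.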",
  "data": [
    {"smiles": "CN(C(=O)CN1CCOCC1)c1ccc2sc3c(-c4cccc5c(=O)cc(N6CC7CCC(C6)O7)oc45)cccc3c2c1", "note": "[NU5455]", "values": [
      {"measurement": "inhibition at 1 µM", "result": -3.7, "unit": "%"}
    ]}
  ]
}
